Measurements taken from patent US20160175249A1, “Liposomes Containing Oligopeptide Fragments of Myelin Basic Protein, a Pharmaceutical Composition and a Method for Treatment of Multiple Sclerosis” (LIPOXEN TECHNOLOGIES LIMITED, priority 2009, published 2016).

Test system: EAE-induced DA rats
Test: EAE-induced DA rat model, paralysis score and mortality (DA-EAE-28-02, Example 13)
Type: in vivo
Conditions: 54 EAE induced DA rats; daily s.c. injection, 6 total; deaths/N
Description: Each of the eight MBP peptide formulations were provided as a lyophilized powder and stored at 4° C. Rehydration of each formulation with water for injection was done daily according to Table 10. MBP peptide formulations were re-suspended in water for injection (Cure Medical) and copaxone (Teva LTD) was diluted with saline to a final concentration of 450 μg/mL. Each subject animal was administered the test formulation for 6 consecutive days by subcutaneous injection.
8-9 week old Dark Agouti (DA) female rats (Harlan Laboratories, Inc.), weighing between 110 and 145 grams were used as the test subjects. The health status of the animals used in this study was examined on arrival. Only animals in good health were acclimatized to laboratory conditions and were used in the study. Animals were provided food ad libitum and free access to drinking water. […]
The rats were evaluated up daily starting 24 hours after immunization. […]
9-11 days post EAE induction, 54 animals were divided to 10 groups (5-6 rats in each), and blood was collected from 2 rats of each group before the initiation of the treatment. […] The animals were maintained and evaluated until day 28th post EAE-induction. […]
Animals were observed individually and clinical signs were recorded once daily during all study periods. […] The body weight of each animals was determined daily during all study periods. […]

Question: With glatiramer acetate [copaxone] as the substance, how does the “Mortality Rate” value read?
Answer: 1/5
